The subject of this data set is lamina cribrosa cell line #506. The data set can be described thus: TUNEL labeling of siRNA-transfected LC cells treated with TNF-α and camptothecin. In kind it is cell-based, human. To be noted: LC #506, TNF-α and camptothecin 24 h. As for the experimental part:
Lamina cribrosa cell line #506 cells were seeded at 7500 cells per well onto an 8-well culture slide. Three days later the LC cells were transfected with either apoptosis-specific eIF-5A siRNA #1 (SEQ ID NO:30) or control siRNA #5 (SEQ ID NO:34). 72 hours after transfection, the transfected cells were treated with 10 ng/ml TNF-α plus 50 μM camptothecin. Twenty-four hours later the cells were stained with Hoescht 33258 and DNA fragmentation was evaluated in situ using the terminal deoxynucleotidyl transferase-mediated dUTP-digoxigenin nick end labeling (TUNEL) method. Panel A represents the slide observed by fluorescence microscopy using a fluorescein filter to visualize TUNEL-labeling of the fragmented DNA of apoptotic cells. Panel B represents the same slide observed by through a UV filter to visualize the Hoescht-stained nuclei. The results are representative of two independent experiments. All pictures were taken at 400 times magnification.
Transfected cells that had been treated with TNF-α and camptothecin for 24 hours were stained with Hoescht 33258 in order to determine the percentage of cells undergoing apoptosis. Briefly, cells were fixed with a 3:1 mixture of absolute methanol and glacial acetic acid and then incubated with Hoescht stain (0.5 μg/ml Hoescht 33258 in PBS). After a 10 minute incubation in the dark, the staining solution was discarded, the chambers separating the wells of the culture slide were removed, and the slide was washed 3 times for 1 minute with deionized water. After washing, a few drops of Mcllvaine's buffer (0.021 M citric acid, 0.058 M Na2HPO4.7H2O; pH 5.6) was added to the cells and overlaid with a coverslip. The stained cells were viewed under a fluorescent microscope using a UV filter. Cells with brightly stained or fragmented nuclei were scored as apoptotic. A minimum of 200 cells were counted per well. The DeadEnd™ Fluorometric TUNEL (Promega) was also used to detect the DNA fragmentation that is a characteristic feature of apoptotic cells. Following Hoescht staining, the culture slide was washed briefly with distilled water, and further washed by immersing the slide twice for 5 minutes in PBS (137 mM NaCl, 2.68 mM KCl, 1.47 mM KH2PO4, 8.1 mM Na2HPO4), blotting the slide on paper towel between washes. The cells were permeabilized by immersing them in 0.2% Triton X-100 in PBS for 5 minutes. The cells were then washed again by immersing the slide twice for 5 minutes in PBS and blotting the slide on paper towel between washes. 25 μl of equilibration buffer [200 mM potassium cacodylate (pH 6.6), 25 mM. Tris-HCl (pH 6.6), 0.2 mM dithiothreitol, 0.25 mg/ml bovine serum albumin, and 2.5 mM cobalt chloride] was added per well and incubated for 5 to 10 minutes. […] Any cells with brightly stained or fragmented nuclei were scored as apoptotic. […]

“siRNA #1: siRNA against human apoptosis-specific eIF-5A (SEQ ID NO:30); target 5′ AAAGGAATGACTTCCAGCTGA 3′ (SEQ ID NO: 81) (AAAGGAAUGACUUCCAGCUGATT; RNA, all phosphodiester, T or U not given here; listed as Homo sapiens)”: the “LC cells positive for TUNEL staining” value (3 days after transfection) was found to be 8%. For the same substance, the “protection from apoptosis relative to the control siRNA” value (TUNEL) is given as “greater than 80%”.

These data come from patent publication US8754057B2, “Inhibition of apoptosis-specific eIF-5A(eIF-5A1″) with antisense oligonucleotides and siRNA as anti-inflammatory therapeutics” (Senesco Technologies, Inc., priority 2003, dated 2014).
